Our source for the IC50 values is patent publication US10703756B2, “Pyrrolo[2,3-D]pyrimidinyl, pyrrolo[2,3-B]pyrazinyl, pyrrolo[2,3-B]pyridinyl acrylamides and epoxides thereof” (Pfizer Inc., priority 2015, dated 2020).

Structures are written as SMILES. pIC50: −log10 of the molar value. Read-outs that look alike come from different tables or passages of the source.

Assay [1] has as its target T1, JAK3 enzyme (Homo sapiens, UniProt P52333).
T1 sequence (P52333 1-1124): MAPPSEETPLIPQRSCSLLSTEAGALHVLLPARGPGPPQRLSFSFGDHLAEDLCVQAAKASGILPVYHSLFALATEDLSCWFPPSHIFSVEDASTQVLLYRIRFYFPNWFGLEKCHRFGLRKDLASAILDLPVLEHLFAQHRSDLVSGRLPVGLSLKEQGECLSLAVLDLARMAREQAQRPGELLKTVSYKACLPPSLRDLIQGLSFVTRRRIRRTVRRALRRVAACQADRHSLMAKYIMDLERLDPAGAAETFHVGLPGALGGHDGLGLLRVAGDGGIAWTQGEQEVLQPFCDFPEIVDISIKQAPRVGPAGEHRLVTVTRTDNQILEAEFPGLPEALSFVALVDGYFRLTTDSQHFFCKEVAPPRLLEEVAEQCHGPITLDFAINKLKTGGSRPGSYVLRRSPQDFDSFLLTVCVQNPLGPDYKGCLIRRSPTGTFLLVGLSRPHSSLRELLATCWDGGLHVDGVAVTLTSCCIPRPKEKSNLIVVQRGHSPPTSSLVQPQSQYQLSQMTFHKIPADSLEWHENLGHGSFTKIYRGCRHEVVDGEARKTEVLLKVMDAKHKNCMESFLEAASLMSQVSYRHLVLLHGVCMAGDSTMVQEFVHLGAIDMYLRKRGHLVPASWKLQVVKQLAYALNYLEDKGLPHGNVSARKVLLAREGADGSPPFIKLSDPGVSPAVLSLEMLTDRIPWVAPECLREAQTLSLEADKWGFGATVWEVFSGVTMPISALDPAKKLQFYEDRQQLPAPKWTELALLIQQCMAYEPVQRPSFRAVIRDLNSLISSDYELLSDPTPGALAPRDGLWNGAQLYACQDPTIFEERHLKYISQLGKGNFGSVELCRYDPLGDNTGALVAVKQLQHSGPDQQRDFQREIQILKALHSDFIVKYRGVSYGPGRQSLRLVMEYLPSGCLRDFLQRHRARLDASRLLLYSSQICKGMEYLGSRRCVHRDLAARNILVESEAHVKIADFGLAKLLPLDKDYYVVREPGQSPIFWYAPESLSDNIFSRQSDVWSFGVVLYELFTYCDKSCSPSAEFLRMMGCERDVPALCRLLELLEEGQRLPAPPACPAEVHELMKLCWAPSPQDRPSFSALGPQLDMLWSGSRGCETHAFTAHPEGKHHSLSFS
Kind of assay: JAK Caliper Enzyme Assay at 4 μM ATP. In kind it is biochemical. In a few lines:
(§1)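 11-pt ½-log cpd titration in DMSO (top 600 μM, pre-assay); enzyme conc/incubation adjusted per prep → 20-30% peptide phosphorylation; phospho vs non-phospho peptide read by chip-based electrophoretic separation.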

For assay [2], the system named is IL-15 induced P-STAT5 in human PBMC. The assay can be described thus: PBMC IL-15 Induced P-STAT5. The format is cell-based. To be noted: for pIC50: human PBMC, IL-15 final 41 ng/mL, read-out: PBMC IL15_pSTAT5_IC50. As for the experimental part:
PBMC IL-15 Induced P-STAT5
Test compounds were serially diluted in DMSO, with further dilution of the compounds in RPMI 1640 medium (Invitrogen #72400) supplemented with 10 mM HEPES, pH 7.4, 1 mM sodium pyruvate, and Penicillin/Streptomycin (by adding 5 μL compound/DMSO in 120 μL Dulbecco's Phosphate-Buffered Saline (D-PBS, 1×), [DMSO]=4%, and mixing the solution by repeated pipetting, 6×). IL-15 was diluted to the concentration at 820 ng/mL in RPMI 1640 medium.
Frozen human PBMC (200-250 million cells/vial) was thawed at 37° C. The cells were transferred to 10 mL warm medium in a 50-mL conical tube, and centrifuged at 1,200 RPM at room temperature for 5 min. The supernatant was aspirated. Cells were suspended in 3 mL warm human plasma and incubated at 37° C. in a tissue culture incubator for 1.5 to 2 h. After adding 47 ml D-PBS (37° C.) to PBMC/FBS suspension, centrifuging at 1,200 RPM at room temperature for 5 min, and aspirating the supernatant, the cells were resuspended in 20 mL warm RPMI medium. Ninety μL of cell suspension were pipetted per well in a 96-well, deep-well, V-bottom plate, and the plate was incubated at 37° C. for 30 min. Five μL of compound were transferred to each well (final 0.2% DMSO), vortex gently and incubate at 37° C. for 15 min; 5 μL 4% DMSO/PBS were added to the control wells. After adding 5 μL 820 ng/mL of human IL-15 (final 41 ng/mL) to each well (5 μL PBS to the control wells), vortexing gently and incubating at 37° C. for 15 min, followed by 0.3 mL 1% paraformaldehyde/PBS (37° C.) to each well, and incubating the plate at room temperature for 15 min, the plates were centrifuged at 1,200 RPM (Beckman GS-6R or Sorvall Legend) at room temperature for 5 min, and the supernatant was aspirated using a 8-channel or 12-channel manifold. After adding 0.8 mL staining buffer per well, the plates were centrifuged at 1,200 RPM (Beckman GS-6R or Sorvall Legend) at room temperature for 5 min, and again the supernatant was aspirated using a 8-channel or 12-channel manifold. The plate was vortexed, and 0.35 mL 90% methanol/10% H2O (−20° C.) was added per well, and the plate incubated on ice for 20 min. After again adding 0.8 mL staining buffer per well, the plates were centrifuged at 1,200 RPM (Beckman GS-6R or Sorvall Legend) at room temperature for 5 min, and again the supernatant was aspirated using a 8-channel or 12-channel manifold, and then 0.8 mL Staining buffer was added per well. After once again adding 0.8 mL staining buffer per well, the plates were centrifuged at 1,200 RPM (Beckman GS-6R or Sorvall Legend) at room temperature for 5 min, and again the supernatant was aspirated using a 8-channel or 12-channel manifold. Then the plate was vortexed, and 250 μL/well of Alexa Fluor® 647 conjugated anti-STAT5 antibody ([…]; […]) was added, and the plate was incubated at 4° C. overnight in the dark. Samples of 250 μL/well were transferred to a 96-well U-bottom plate, and the FACS analysis was performed gating on total lymphocytes. Samples were analyzed using a BD Calibur™ or BD FACSCanto™ flow cytometer equipped with the BD High Throughput Sampler.

The target in assay [3] is T1, JAK3 enzyme. Kind of assay: JAK Caliper Enzyme Assay at 1 mM ATP. In kind it is biochemical. In a few lines:
as §1

For the compound `C=CC(=O)N1CC[C@H](Oc2cnc3[nH]cc(C(=O)N[C@H](C)COC)c3n2)C1` [Example 54, 2-{[(3S)-1-acryloylpyrrolidin-3-yl]oxy}-N-[(2R)-1-methoxypropan-2-yl]-5H-pyrrolo[2,3-b]pyrazine-7-carboxamide], the values for the pIC50 on JAK3 enzyme [1] and against JAK3 enzyme [3] were 8.60 and 6.46, respectively. For the same compound, the IC50 in assay [2] (Homo sapiens, PBMC, read-out: PBMC IL15_pSTAT5_IC50 (nM)) came to 1640 nM.
For the compound `C=CC(=O)N1CCN(c2cnc3[nH]cc(C(=O)NCC(F)(F)F)c3n2)C[C@@H]1CC(C)C` [Example 311, 2-[(3S)-4-acryloyl-3-(2-methylpropyl)piperazin-1-yl]-N-(2,2,2-trifluoroethyl)-5H-pyrrolo[2,3-b]pyrazine-7-carboxamide], the pIC50 is 8.75 at JAK3 enzyme [1], 6.23 in assay [2] and 6.65 against JAK3 enzyme [3].
As to `C=CC(=O)N1CCN(c2cnc3[nH]cc(C(=O)NC(COC)COC)c3n2)CC1(C)C` (racemic) [Example 140, Racemic-2-(4-acryloyl-3,3-dimethylpiperazin-1-yl)-N-(1,3-dimethoxypropan-2-yl)-5H-pyrrolo[2,3-b]pyrazine-7-carboxamide], the pIC50 against JAK3 enzyme [1] is 8.57; in assay [2] it was 5.77; against JAK3 enzyme [3], 6.42.
On to `C=CC(=O)N1CCN(c2cnc3[nH]cc(C(=O)NCC4(O)CCC(F)(F)CC4)c3n2)C[C@@H]1CC(C)C` [Example 302, 2-[(3S)-4-acryloyl-3-(2-methylpropyl)piperazin-1-yl]-N-[(4,4-difluoro-1-hydroxycyclohexyl)methyl]-5H-pyrrolo[2,3-b]pyrazine-7-carboxamide], for which the pIC50 at JAK3 enzyme [1] is 8.54; in assay [2] it was 5.93; on JAK3 enzyme [3], 6.41.
As to `C=CC(=O)N1CC[C@H](Nc2cnc3[nH]cc(C(=O)N[C@H](C)COC)c3n2)C[C@@H]1C` (stereo in doubt) [Example 354, 2-(((2S,4S)-1-Acryloyl-2-methylpiperidin-4-yl)amino)-N—((R)-1-methoxypropan-2-yl)-5H-pyrrolo[2,3-b]pyrazine-7-carboxamide], the pIC50 on JAK3 enzyme [1] was 8.47; in assay [2], 5.34; against JAK3 enzyme [3], 6.58.
Regarding `C=CC(=O)N1CCC(Nc2cnc3[nH]cc(C(=O)NCC(C)CC(F)(F)F)c3n2)CC1C` (racemic) [Example 310, Racemic-2-[(1-acryloyl-2-methylpiperidin-4-yl)amino]-N-(4,4,4-trifluoro-2-methylbutyl)-5H-pyrrolo[2,3-b]pyrazine-7-carboxamide], the pIC50 at JAK3 enzyme [1] is 8.68; in assay [2] it was 5.92; against JAK3 enzyme [3] it was 6.77.
`C=CC(=O)N1CC[C@H](Nc2cnc3[nH]cc(C(=O)NC[C@H](C)CC(F)(F)F)c3n2)[C@H](OC)C1` [Example 294, 2-[((3R,4S)-1-acryloyl-3-methoxypiperidin-4-yl)amino]-N-([2R]-4,4,4-trifluoro-2-methylbutyl)-5H-pyrrolo[2,3-b]pyrazine-7-carboxamide]: the pIC50 on JAK3 enzyme [1] was 8.94; in assay [2], 6.24; on JAK3 enzyme [3], 7.21.
As for `C=CC(=O)N1CC[C@@H](Oc2cnc3[nH]cc(C(=O)NCC)c3n2)[C@H](C)C1` (racemic) [Example 46, Trans-racemic-2-{[1-acryloyl-3-methylpiperidin-4-yl]oxy}-N-ethyl-5H-pyrrolo[2,3-b]pyrazine-7-carboxamide], the pIC50 was 8.47 against JAK3 enzyme [1], 6.06 in assay [2] and 6.68 at JAK3 enzyme [3].
`C=CC(=O)N1CCC(Nc2cnc3[nH]cc(S(=O)(=O)NC(C)C)c3n2)CC1` [Example 127, 2-[(1-Acryloylpiperidin-4-yl)amino]-N-(propan-2-yl)-5H-pyrrolo[2,3-b]pyrazine-7-sulfonamide]: the pIC50 against JAK3 enzyme [1] is 8.03; against JAK3 enzyme [3], 5.97.
Take `C=CC(=O)N1C[C@@H](CC)[C@@H](Nc2cnc3[nH]cc(C(=O)NCCOC)c3n2)C1` [Example 257, 2-{[(3R,4R)-1-acryloyl-4-ethylpyrrolidin-3-yl]amino}-N-(2-methoxyethyl)-5H-pyrrolo[2,3-b]pyrazine-7-carboxamide]: the pIC50 against JAK3 enzyme [1] is 7.26; against JAK3 enzyme [3], 5.19.
Take `C=CC(=O)N1CCC(Nc2cnc3[nH]cc(C(=O)NC[C@H](C)CC(F)(F)F)c3n2)CC1C` (stereo partly drawn) [Example 280, 2-[(1-acryloyl-2-methylpiperidin-4-yl)amino]-N-[(2R)-4,4,4-trifluoro-2-methylbutyl]-5H-pyrrolo[2,3-b]pyrazine-7-carboxamide]: the pIC50 was 8.60 at JAK3 enzyme [1] and 6.30 against JAK3 enzyme [3].
Turning to `C=CC(=O)N1C[C@H](Nc2cnc3[nH]cc(C(=O)NCCOC)c3n2)[C@H](C2CC2)C1` [Example 259, 2-{[(3R,4R)-1-acryloyl-4-cyclopropylpyrrolidin-3-yl]amino}-N-(2-methoxyethyl)-5H-pyrrolo[2,3-b]pyrazine-7-carboxamide], the pIC50 was 6.74 at JAK3 enzyme [1] and below 5.00 against JAK3 enzyme [3].
Take `C=CC(=O)N1CC(Nc2cnc3[nH]cc(C(=O)NCC(F)(F)F)c3n2)C2(CC2)C1` (centres unmarked) [Example 242, 2-[(5-acryloyl-5-azaspiro[2.4]hept-7-yl)amino]-N-(2,2,2-trifluoroethyl)-5H-pyrrolo[2,3-b]pyrazine-7-carboxamide]: the pIC50 on JAK3 enzyme [1] is 7.21; against JAK3 enzyme [3], below 5.00.
Regarding `C=CC(=O)N1CC(Nc2cnc3[nH]cc(C(=O)NCCCC(F)(F)F)c3n2)C2(CC2)C1` (centres unmarked) [Example 249, 2-[(5-acryloyl-5-azaspiro[2.4]hept-7-yl)amino]-N-(4,4,4-trifluorobulyl)-5H-pyrrolo[2,3-b]pyrazine-7-carboxamide], the pIC50 on JAK3 enzyme [1] is 7.12; against JAK3 enzyme [3] it was below 5.00.
With `C=CC(=O)N1CCC(Oc2cnc3[nH]cc(C(=O)N[C@H]4CC[C@@H](F)C4)c3c2)CC1` [Example 344, 5-[(1-acryloylpiperidin-4-yl)oxy]-N-[(1S,3R)-3-fluorocyclopentyl]-1H-pyrrolo[2,3-b]pyridine-3-carboxamide], the pIC50 on JAK3 enzyme [1] was 7.57; against JAK3 enzyme [3], 5.60.
